Assays:
[1] = system: genome-length HCV-RNA (AH1 strain of genotype 1b) replication in HuH-7-derived AH1R cells; experiment: AH1R RL assay; assay type: cell-based; details: Hepatitis C virus, HuH-7, HCV strain AH1, 72 hrs
Experimental: RSc and D7 cells were derived from the cell lines HuH-7 and Li23, respectively, were cultured as described previously, [29]. HuH-7-derived OR6 [13], AH1R [30], and 1B-4R [Ikeda et al., submitted] cells harboring genome-length HCV-RNA and HuH-7-derived polyclonal sOR [31], and RSc-JRN/35B [Ikeda et al., submitted] cells harboring an HCV subgenomic replicon were cultured with medium in the presence of G418 (0.3 mg/ml; Geneticin, Invitrogen, Carlsbad, CA) as described previously. Li23-derived ORL8 [20], ORL11 [20], 1B-4RL [Ikeda et al., submitted], and KAH5RL [Ikeda et al., submitted] cells harboring genome-length HCV-RNA were maintained with medium in the presence of G418 (0.3 mg/ml) as described previously. Li23-derived polyclonal sORL8 and sORL11 cells harboring an HCV replicon, which were established by the transfection of ORN/3-5B/QR,KE,SR RNA into the cured OL8 and OL11 cells, respectively, were also cultured with medium in the presence of G418 (0.3 mg/ml) as described previously. Cured cells, from which the HCV-RNA had been eliminated by IFN treatment, were also maintained with medium in the absence of G418 as described previously. […] Therefore, when HCV-RNA is excluded from the cells or when its level is decreased, the cells are killed in the presence of G418. […]
The SI value of each reagent was determined by dividing the CC50 value by the EC50 value.

[2] = system: HCV-RNA replication in ORL8 cells; experiment: Effect of VE on anti-HCV activity, ORL8 RL assay; assay type: cell-based, hepatitis C virus; details: 72 hrs
Experimental: After treatment, an RL assay of harvested ORL8 cell samples was performed. (B, D, and F) The ratio of RL activity in the presence of VE to the RL activity in the absence of VE. The above ratio was calculated from the data of (A, C, and E). […] (G) Western blot analysis was performed as described in Fig. 1B.
The ORL8 cells were treated with N-89 or IFN-α, and then RL assays were performed at 2 to 72 hrs after the treatment. The relative value (%) calculated at each time point, when the luciferase activity of non-treated cells at 24 hrs was assigned as 100%, is shown. Data are expressed as the means±standard deviation of triplicate assays. […] To evaluate this possibility, we examined the effect of VE on N-89 at the EC90 level in the ORL8 assay.

[3] = system: subgenomic HCV-JFH-1 replicon in RSc-JRN/35B cells; experiment: RSc-JRN/35B RL assay; assay type: cell-based, hepatitis C virus
Experimental: RSc and D7 cells were derived from the cell lines HuH-7 and Li23, respectively, were cultured as described previously, [29]. HuH-7-derived OR6 [13], AH1R [30], and 1B-4R [Ikeda et al., submitted] cells harboring genome-length HCV-RNA and HuH-7-derived polyclonal sOR [31], and RSc-JRN/35B [Ikeda et al., submitted] cells harboring an HCV subgenomic replicon were cultured with medium in the presence of G418 (0.3 mg/ml; Geneticin, Invitrogen, Carlsbad, CA) as described previously. Li23-derived ORL8 [20], ORL11 [20], 1B-4RL [Ikeda et al., submitted], and KAH5RL [Ikeda et al., submitted] cells harboring genome-length HCV-RNA were maintained with medium in the presence of G418 (0.3 mg/ml) as described previously. Li23-derived polyclonal sORL8 and sORL11 cells harboring an HCV replicon, which were established by the transfection of ORN/3-5B/QR,KE,SR RNA into the cured OL8 and OL11 cells, respectively, were also cultured with medium in the presence of G418 (0.3 mg/ml) as described previously. […]
We next examined whether N-89 and N-251 worked in an HCV production system using HCV-JFH-1 strain (genotype 2a). […] To clarify whether anti-HCV activity depends on the difference of genotype or assay model, we evaluated the activities of N-89 and N-251 using RSc-JRN/35B [Ikeda et al., submitted] cells harboring a subgenomic HCV-JFH-1 replicon as an additional assay.

HCV-RNA in OR6 cells = experiment: Curing of OR6 cells by N-89 treatment (G418 selection, Western blot); assay type: cell-based, hepatitis C virus; details: 8 µM, 3 weeks, addition at 4-day intervals, absence of G418
Experimental: To date, IFN-α alone or IFN-γ alone has generally been used to prepare cured cells from the cells harboring HCV-RNA [36]. Since we observed strong anti-HCV activity (>99% suppression) at 8 µM of N-89 in OR6 cells or 1 µM of N-89 in ORL8 cells without a decrease in cell viability (Fig. 1B), we expected that these cells might be cured only by treatment with N-89. Accordingly, OR6 and ORL8 cells were treated with 8 µM and 1 µM of N-89, respectively, in the absence of G418. The treatment was continued for 3 weeks with the addition of N-89 at 4-day intervals.
Figure 3 OR6 and ORL8 cells were cured by treatment with only N-89. The treated cells were divided into two plates with or without G418, and then cultured for 2 weeks. The left panels show the cells stained with Coomassie brilliant blue. The right panels show the results of Western blot analysis of the treated and non-treated cells for HCV proteins. Western blot analysis was performed as described in Fig. 1B.

[4] = WST-1 cell proliferation assay, ORL8 cells; assay type: cell-based; details: human
Experimental: (§1) The WST-1 cell proliferation assay was performed as described previously. Briefly, The cells were plated onto 96-well plates (1×10^3 cells per well) in triplicate and then treated with each reagent at several concentrations for 72 hrs. After treatment, the cells were subjected to the WST-1 cell proliferation assay (Takara Bio, Otsu, Japan) according to the manufacturer’s protocol. This assay is based on the enzymatic cleavage of the tetrazolium salt WST-1 to formazan by cellular mitochondrial dehydrogenases present in viable cells. Therefore, there are […] the value of the WST-1 assay becomes zero. The experiments were performed at least in triplicate. From the assay results, the 50% cytotoxic concentration (CC50) of each reagent was determined.

[5] = WST-1 cell proliferation assay, KAH5RL cells; assay type: cell-based; details: human
Experimental: as §1

[6] = set-up: method as in Kim et al., unpublished data; details: ref Kim et al., unpublished data; cited from earlier work

Q: Which EC50 [1] does the source give for `C1CCCCCC2(CCCCC1)OOCCCOO2` [N-89, 1,2,6,7-Tetraoxaspiro[7.11]nonadecane] here?
A: Its EC50 is 0.025 µM.

Q: What about the “VE 10μM(+) / VE 10μM(-) ratio of RL activity” value ([2]; reagent at expected EC90, Fig. 5B (control 3.0)) of the same compound?
A: The value was 16.

Q: What about the “anti-HCV activity, subgenomic HCV-JFH-1 replicon” value [3] of the same compound?
A: Its value is “did not show any anti-HCV activities”.

Q: What about the “curing of HCV-RNA-replicating cells” value (HCV-RNA in OR6 cells) of the same compound?
A: Its value is “cured”.

Q: And the CC50 at 72 h [4]?
A: The CC50 at 72 h was 2.3 µM.

Q: What about the CC50 at 72 h [5] of the same compound?
A: Its CC50 at 72 h is 2.5 µM.

Q: And the blood concentration [6]?
A: The blood concentration was “approximately 1 µM”.

Q: With `OCCCCCCC1COOC2(CCCCCCCCCCC2)OOC1` [N-251, 6-(1,2,6,7-tetraoxaspiro[7.11]nonadec-4-yl)hexan-1-ol] as the compound, how does the EC50 [1] read?
A: Its EC50 is 0.14 µM.

Q: And the “VE 10μM(+) / VE 10μM(-) ratio of RL activity” value ([2]; reagent at expected EC90, Fig. 5D (control 2.3))?
A: Its value is 13.

Q: And the “anti-HCV activity, subgenomic HCV-JFH-1 replicon” value [3]?
A: Its value is “did not show any anti-HCV activities”.

Q: What about the CC50 at 72 h [4] of the same compound?
A: The CC50 at 72 h was 1.3 µM.

Q: What about the CC50 at 72 h [5] of the same compound?
A: The CC50 at 72 h was 2.8 µM.

Q: And the blood concentration [6]?
A: The blood concentration was “approximately 1 µM”.

Reference: paper PMC3758303 (PLoS ONE, 2013)
